# ChEMBL document CHEMBL1127517 (J Med Chem, 1994)
# pKi: −log10 of the molar value.
# What was measured:
# [1] = test system: Rattus norvegicus; assay: Distribution of radio activity in tissues of unfasted male rats was measured at 120 min of time in blood after intravenous administration; assay type: ADME, organism-based; conditions: in vivo, 2 h
# [2] = test system: Rattus norvegicus; assay: Distribution of radio activity in tissues of unfasted male rats was measured at 120 min of time in liver after intravenous administration; assay type: ADME, organism-based; conditions: in vivo, 2 h
# [3] = test system: Rattus norvegicus; assay: Distribution of radio activity in tissues of unfasted male rats was measured at 2 min of time in spleen after intravenous administration; assay type: ADME, organism-based; conditions: in vivo
# [4] = test system: Rattus norvegicus; assay: Distribution of radio activity in tissues of unfasted male rats was measured as regional uptake at 30 min of time in cortex after intravenous administration; assay type: ADME, organism-based; conditions: in vivo, 0.5 h
# [5] = test system: Rattus norvegicus; assay: Distribution of radio activity in tissues of unfasted male rats was measured at 30 min of time in muscle after intravenous administration; assay type: ADME, organism-based, Muscle tissue; conditions: in vivo, 0.5 h
# [6] = test system: Rattus norvegicus; assay: Distribution of radio activity in tissues of unfasted male rats was measured at 30 min of time in spleen after intravenous administration; assay type: ADME, organism-based; conditions: in vivo, 0.5 h
# [7] = test system: Rattus norvegicus; assay: Distribution of radio activity in tissues of unfasted male rats was measured at 120 min of time in spleen after intravenous administration; assay type: ADME, organism-based; conditions: in vivo, 2 h
# [8] = test system: Rattus norvegicus; assay: Distribution of radio activity in tissues of unfasted male rats was measured at 60 min of time in muscle after intravenous administration; assay type: ADME, organism-based, Muscle tissue; conditions: in vivo, 1 h
# [9] = test system: Rattus norvegicus; assay: Distribution of radio activity in tissues of unfasted male rats was measured as regional uptake at 30 min of time in hippocampus after intravenous administration; assay type: ADME, organism-based; conditions: in vivo, 0.5 h
# [10] = test system: Rattus norvegicus; assay: Distribution of radio activity in tissues of unfasted male rats was measured as regional uptake at 120 min of time in striatum after intravenous administration; assay type: ADME, organism-based; conditions: in vivo, 2 h
# [11] = test system: Rattus norvegicus; assay: Distribution of radio activity in tissues of unfasted male rats was measured at 2 min of time in brain after intravenous administration; assay type: ADME, organism-based; conditions: in vivo
# [12] = test system: Rattus norvegicus; assay: Distribution of radio activity in tissues of unfasted male rats was measured at 2 min of time in skin after intravenous administration; assay type: ADME, organism-based; conditions: in vivo
# [13] = test system: Rattus norvegicus; assay: Distribution of radio activity in tissues of unfasted male rats was measured as regional uptake at 30 min of time in striatum after intravenous administration; assay type: ADME, organism-based; conditions: in vivo, 0.5 h
# [14] = test system: Rattus norvegicus; assay: Distribution of radio activity in tissues of unfasted male rats was measured at 30 min of time in blood after intravenous administration; assay type: ADME, organism-based; conditions: in vivo, 0.5 h
# [15] = test system: Rattus norvegicus; assay: Distribution of radio activity in tissues of unfasted male rats was measured at 2 min of time in heart after intravenous administration; assay type: ADME, organism-based; conditions: in vivo
# [16] = test system: Rattus norvegicus; assay: Distribution of radio activity in tissues of unfasted male rats was measured at 2 min of time in thyroid after intravenous administration; assay type: ADME, organism-based, Thyroid gland; conditions: in vivo
# [17] = test system: Rattus norvegicus; assay: Distribution of radio activity in tissues of unfasted male rats was measured at 120 min of time in skin after intravenous administration; assay type: ADME, organism-based; conditions: in vivo, 2 h
# [18] = test system: Rattus norvegicus; assay: Distribution of radio activity in tissues of unfasted male rats was measured at 2 min of time in blood after intravenous administration; assay type: ADME, organism-based; conditions: in vivo
# [19] = test system: Rattus norvegicus; assay: Distribution of radio activity in tissues of unfasted male rats was measured as regional uptake at 30 min of time in cerebellum after intravenous administration; assay type: ADME, organism-based; conditions: in vivo, 0.5 h
# [20] = test system: Rattus norvegicus; assay: Distribution of radio activity in tissues of unfasted male rats was measured as regional uptake at 2 min of time in cerebellum after intravenous administration; assay type: ADME, organism-based; conditions: in vivo
# [21] = biological target: Sodium-dependent dopamine transporter (Rattus norvegicus, UniProt P23977); assay: Inhibitory constant towards reuptake of [125I]-12 from dopamine transporter in rat striatal membranes; assay type: cell membranes, Membrane
# Sodium-dependent dopamine transporter, sequence (P23977 whole entry): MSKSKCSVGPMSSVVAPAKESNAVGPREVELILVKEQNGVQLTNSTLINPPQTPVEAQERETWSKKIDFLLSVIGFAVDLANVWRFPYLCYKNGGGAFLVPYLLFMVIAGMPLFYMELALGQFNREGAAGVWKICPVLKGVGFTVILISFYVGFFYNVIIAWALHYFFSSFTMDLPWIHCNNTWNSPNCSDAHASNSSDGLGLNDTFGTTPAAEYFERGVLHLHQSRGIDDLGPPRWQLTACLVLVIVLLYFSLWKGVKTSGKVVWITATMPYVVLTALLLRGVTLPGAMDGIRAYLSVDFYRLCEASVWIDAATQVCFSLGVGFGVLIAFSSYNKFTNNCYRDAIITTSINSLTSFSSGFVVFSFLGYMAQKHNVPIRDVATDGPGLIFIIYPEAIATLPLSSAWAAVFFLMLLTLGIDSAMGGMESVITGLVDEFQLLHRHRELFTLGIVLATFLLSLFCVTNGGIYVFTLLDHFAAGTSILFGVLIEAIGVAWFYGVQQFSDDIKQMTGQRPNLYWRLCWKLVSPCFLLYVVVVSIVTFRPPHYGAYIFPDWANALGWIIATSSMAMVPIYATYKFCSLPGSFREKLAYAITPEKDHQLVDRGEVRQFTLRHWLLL
# [22] = test system: Rattus norvegicus; assay: Distribution of radio activity in tissues of unfasted male rats was measured at 30 min of time in lung after intravenous administration; assay type: ADME, organism-based; conditions: in vivo, 0.5 h
# [23] = test system: Rattus norvegicus; assay: Distribution of radio activity in tissues of unfasted male rats was measured at 60 min of time in lung after intravenous administration; assay type: ADME, organism-based; conditions: in vivo, 1 h
# [24] = test system: Rattus norvegicus; assay: Distribution of radio activity in tissues of unfasted male rats was measured as regional uptake at 120 min of time in ST/CB after intravenous administration; assay type: ADME, organism-based; conditions: in vivo, 2 h
# [25] = test system: Rattus norvegicus; assay: Distribution of radio activity in tissues of unfasted male rats was measured at 30 min of time in heart after intravenous administration; assay type: ADME, organism-based; conditions: in vivo, 0.5 h
# [26] = test system: Rattus norvegicus; assay: Distribution of radio activity in tissues of unfasted male rats was measured as regional uptake at 30 min of time in ST/CB after intravenous administration; assay type: ADME, organism-based; conditions: in vivo, 0.5 h
# [27] = test system: Rattus norvegicus; assay: Distribution of radio activity in tissues of unfasted male rats was measured at 120 min of time in thyroid after intravenous administration; assay type: ADME, organism-based, Thyroid gland; conditions: in vivo, 2 h
# [28] = test system: Rattus norvegicus; assay: Distribution of radio activity in tissues of unfasted male rats was measured at 60 min of time in kidney after intravenous administration; assay type: ADME, organism-based; conditions: in vivo, 1 h
# [29] = test system: Rattus norvegicus; assay: Distribution of radio activity in tissues of unfasted male rats was measured at 120 min of time in muscle after intravenous administration; assay type: ADME, organism-based, Muscle tissue; conditions: in vivo, 2 h
# [30] = test system: Rattus norvegicus; assay: Distribution of radio activity in tissues of unfasted male rats was measured at 60 min of time in heart after intravenous administration; assay type: ADME, organism-based; conditions: in vivo, 1 h
# [31] = test system: Rattus norvegicus; assay: Distribution of radio activity in tissues of unfasted male rats was measured as regional uptake at 60 min of time in striatum after intravenous administration; assay type: ADME, organism-based; conditions: in vivo, 1 h
smiles,measurement,setting,value
COC(=O)C1C(c2ccc(Cl)cc2)CC2CCC1N2C/C=C/I (stereo unspecified),Injected dose/organ,[1],4.77%
same,Injected dose/organ,[2],1.44%
same,Injected dose/organ,[3],0.41%
same,Dose/g,[4],0.22%
same,Injected dose/organ,[5],18.54%
same,Injected dose/organ,[6],0.23%
same,Injected dose/organ,[7],0.09%
same,Injected dose/organ,[8],12.14%
same,Dose/g,[9],0.26%
same,Dose/g,[10],0.61%
same,Injected dose/organ,[11],1.62%
same,Injected dose/organ,[12],5.14%
same,Dose/g,[13],1.67%
same,Injected dose/organ,[14],7.12%
same,Injected dose/organ,[15],1.05%
same,Injected dose/organ,[16],0.06%
same,Injected dose/organ,[17],20%
same,Injected dose/organ,[18],2.98%
same,Dose/g,[19],0.23%
same,Dose/g,[20],0.97%
same,pKi,[21],9.16
same,Injected dose/organ,[22],0.91%
same,Injected dose/organ,[23],0.4%
same,Dose/g,[24],16.5%
same,Injected dose/organ,[25],0.29%
same,Dose/g,[26],6.91%
same,Injected dose/organ,[27],1.06%
same,Injected dose/organ,[28],0.58%
same,Injected dose/organ,[29],9.04%
same,Injected dose/organ,[30],0.19%
same,Dose/g,[31],1.23%
